Reference: article PMC3388044, “Probing of Exosites Leads to Novel Inhibitor Scaffolds of HCV NS3/4A Proteinase” (PLoS ONE, 2012)

Columns and labels:
NS3/4A D168A = assay type: biochemical, HCV genotype 1b, strain HC-J4; details: fold change in IC50 for the mutant compared to WT
Source text: (§1) Reagents were purchased from Sigma unless indicated otherwise. The FRET substrate Ac-DE-D(Edans)-EE-Abu-ψ-[COO]-AS-K(Dabsyl)-NH2, purified recombinant wild-type NS3/4A from HCV genotype 1b, strain HC-J4, and the mutants with the V36M, R155K, A156T, D168A and V170A resistance mutations were from AnaSpec (Fremont, CA). The NS3/4A construct represented the individual NS3 proteinase domain N-terminally fused with an NS4A co-factor and tagged with a 6xHis tag. […] Pyroglutamic acid-Arg-Thr-Lys-Arg-7-amino-4-methylcoumarin was from Peptides International (Louisville, KY). West Nile virus NS2B-NS3 proteinase (strain NY99) was expressed, purified and refolded to restore its functional activity as described earlier. The pET15b-Den2-CF40-Gly-NS3pro 185 plasmid encoding the Dengue virus type 2 NS2B-NS3 protease was a kind gift of Dr. Subhash Vasudevan (Program in Emerging Infectious Diseases, DUKE-NUS Graduate Medical School, Singapore). DV NS2B-NS3 proteinase was expressed purified and refolded to restore its functional activity as described previously, [70]. The expression of the soluble C-terminally truncated human furin construct in Sf9 insect cells (an ovarian cell line from fall armyworm Spodoptera frugiperda; Invitrogen, Carlsbad, CA) infected with the recombinant baculovirus and purification of soluble furin from the medium were described earlier. Original human hepatocarcinoma Huh7 cells were obtained from ATCC (Manassas, VA).
(§2) The NS3/4A activity assay was performed at 37°C in triplicate in wells of a 96-well plate in 0.2 ml 50 mM HEPES, pH 7.5, containing 100 mM NaCl, 10 mM DTT, 20% glycerol, the Ac-DE-D(Edans)-EE-Abu-ψ-[COO]-AS-K(Dabsyl)-NH2 substrate (10 µM) and the NS3/4A enzyme (10 nM). Reaction velocity was monitored continuously at λex = 355 nm and λem = 500 nm for 10 min using a Spectramax Gemini EM fluorescence spectrophotometer (Molecular Devices, Sunnyvale, CA) and the initial rate of reaction v was recorded for each reaction. […] Compound stock solutions (10 mM) were made in 100% DMSO. Stocks were then diluted using the assay buffer. As a result, the final DMSO concentration was always below 1% in the assay reactions.
(§3) To measure the inhibitory potency of the compounds, their increasing concentrations were pre-incubated with the individual proteinases in the corresponding buffer for 30 min at ambient temperature. At least, 7–9 different concentrations were used for each inhibitor. The residual activity of the enzymes was then measured as above. The IC50 values of the inhibitory compounds were calculated by determining the concentrations of the compounds needed to inhibit 50% of the enzyme activity against the peptide substrate. GraphPad Prism was used as fitting software.

NS3/4A R155K = target: T1, NS3/4A R155K (Hepatitis C virus genotype 1b, UniProt O92972, R1181K); assay type: biochemical, HCV genotype 1b, strain HC-J4; details: recombinant R155K mutant, FRET peptide substrate
T1 construct: The NS3/4A construct represented the individual NS3 proteinase domain N-terminally fused with an NS4A co-factor; 6xHis; purchased AnaSpec (Fremont, CA)
Source text: as §1, §2, §3

furin = target: T2, furin (Homo sapiens, UniProt P09958); assay: Furin activity assay (cross-reactivity); assay type: biochemical; details: pyroglutamic acid-Arg-Thr-Lys-Arg-7-amino-4-methylcoumarin substrate
T2 construct: soluble C-terminally truncated human furin construct in Sf9 insect cells; made in house; host or cells: Sf9 insect cells (baculovirus)
Source text: (§4) Reagents were purchased from Sigma unless indicated otherwise. The FRET substrate Ac-DE-D(Edans)-EE-Abu-ψ-[COO]-AS-K(Dabsyl)-NH2, purified recombinant wild-type NS3/4A from HCV genotype 1b, strain HC-J4, and the mutants with the V36M, R155K, A156T, D168A and V170A resistance mutations were from AnaSpec (Fremont, CA). The NS3/4A construct represented the individual NS3 proteinase domain N-terminally fused with an NS4A co-factor and tagged with a 6xHis tag. NS3/4A was in active form and the pre-activation by pep-4A or pep4AK was not necessary. Pyroglutamic acid-Arg-Thr-Lys-Arg-7-amino-4-methylcoumarin was from Peptides International (Louisville, KY). West Nile virus NS2B-NS3 proteinase (strain NY99) was expressed, purified and refolded to restore its functional activity as described earlier. The pET15b-Den2-CF40-Gly-NS3pro 185 plasmid encoding the Dengue virus type 2 NS2B-NS3 protease was a kind gift of Dr. Subhash Vasudevan (Program in Emerging Infectious Diseases, DUKE-NUS Graduate Medical School, Singapore). DV NS2B-NS3 proteinase was expressed purified and refolded to restore its functional activity as described previously, [70]. The expression of the soluble C-terminally truncated human furin construct in Sf9 insect cells (an ovarian cell line from fall armyworm Spodoptera frugiperda; Invitrogen, Carlsbad, CA) infected with the recombinant baculovirus and purification of soluble furin from the medium were described earlier. Original human hepatocarcinoma Huh7 cells were obtained from ATCC (Manassas, VA).
(§5) The activity of furin and both WNV and DV2 NS2B-NS3 proteinases (10 nM each) was measured in triplicate in 0.2 ml 20 mM Tris-HCl buffer, pH 8.0, containing 20% glycerol and 0.005% Brij 35 (for furin – 100 mM HEPES, pH 7.5, containing 1 mM CaCl2, 1 mM β-mercaptoethanol and 0.005% Brij 35) and pyroglutamic acid-Arg-Thr-Lys-Arg-7-amino-4-methylcoumarin (10 µM) as a substrate (λex = 360 nm; λem = 465 nm) as described earlier.
as §3

WNV NS2B-NS3 proteinase = WNV NS2B-NS3 proteinase activity assay (cross-reactivity); assay type: biochemical, West Nile virus (strain NY99); details: pyroglutamic acid-Arg-Thr-Lys-Arg-7-amino-4-methylcoumarin substrate
Source text: as §4, §5, §3

Huh7 ET cells = details: for CC50: read-out: HCV replicon CC50, concentration reducing cell viability by 50%, 72 h; for CC90: read-out: HCV replicon CC90, concentration reducing cell viability by 90%, 72 h
Protocol: Both cell toxicity and HCV replicon inhibition assays were performed in triplicate in wells of a 96-well flat-bottom, white-wall plates (E&K Scientific, Santa Clara, CA) by the Drug Development Division, Southern Research Institute (SRI; Birmingham, AL). […] Prior to the assays, sub-confluent Huh7 ET cultures were seeded in wells of a 96-well plate. Following a 24 h incubation at 37°C in a 5% CO2 incubator, increasing concentrations of the compounds were added to the wells and incubation was continued for an additional 72 h. […] Human interferon α2b was used as a control. The cellular replicon-derived luciferase activity was measured using the Steady-Glo Luciferase Assay System (Promega, Fitchburg, WI) and a fluorescence spectrophotometer. Cytotoxicity of compounds was measured using the CytoTox-ONE Homogeneous Membrane Integrity Assay (Promega). The IC50 and IC90 values of the compounds (compound concentrations inhibiting the replicon by 50% and 90%, respectively) as well as CC50 and CC90 (compound concentration decreasing cell viability by 50% and 90%, respectively) were calculated using GraphPad Prism.

NS3/4A V170A = assay: NS3/4A activity assay, V170A mutant; assay type: biochemical, HCV genotype 1b, strain HC-J4; details: for NS3/4A V170A FC: fold change in IC50 for the mutant compared to WT; for IC50: recombinant V170A mutant, FRET peptide substrate
Source text: as §1, §2, §3

## O=C(Nc1ccccc1)c1cc(S(=O)(=O)Nc2nc3ncccc3[nH]2)c(SSc2cc(Cl)c(C(=O)Nc3ccccc3)cc2S(=O)(=O)Nc2nc3ncccc3[nH]2)cc1Cl [Compound 1]
NS3/4A D168A
  NS3/4A D168A FC: 1.4
NS3/4A R155K
  IC50: 1.75 µM
furin
  IC50: > 100 µM
WNV NS2B-NS3 proteinase
  IC50: 21.9 µM
Huh7 ET cells
  CC50: > 100 µM
  CC90: > 100 µM
NS3/4A V170A
  NS3/4A V170A FC: 2.2
  IC50: 0.4 µM

## Clc1ccc(OCc2nn3c(CCc4nnc5sc(COc6ccc(Cl)cc6)nn45)nnc3s2)cc1 [Compound 2]
NS3/4A D168A
  NS3/4A D168A FC: 14.8
NS3/4A R155K
  IC50: 5.84 µM
furin
  IC50: > 100 µM
WNV NS2B-NS3 proteinase
  IC50: > 100 µM
Huh7 ET cells
  CC50: 9.99 µM
  CC90: 22.1 µM
NS3/4A V170A
  NS3/4A V170A FC: 6
  IC50: 1.8 µM

## Cc1n[nH]c(=S)n1Nc1nc(SCc2ccccc2)nc2n[nH]c(Cc3nn[nH]n3)c12 [Compound 3]
NS3/4A D168A
  NS3/4A D168A FC: 23.3
NS3/4A R155K
  IC50: 5.53 µM
furin
  IC50: > 100 µM
WNV NS2B-NS3 proteinase
  IC50: 18.2 µM
Huh7 ET cells
  CC50: > 100 µM
  CC90: > 100 µM
NS3/4A V170A
  NS3/4A V170A FC: 5.5
  IC50: 1.97 µM

## Oc1ccccc1-c1nnc2sc3c(Cl)c4nn5c(-c6ccccc6O)nnc5sc4c(Cl)c3nn12 [Compound 4]
NS3/4A D168A
  NS3/4A D168A FC: 9.3
NS3/4A R155K
  IC50: 3.73 µM
furin
  IC50: 12.8 µM
WNV NS2B-NS3 proteinase
  IC50: 3.7 µM
Huh7 ET cells
  CC50: > 100 µM
  CC90: > 100 µM
NS3/4A V170A
  NS3/4A V170A FC: 2.2
  IC50: 0.8 µM

## Clc1ccc(Nc2nc(SCc3ccccc3)nc3n[nH]c(Cc4nc5ccccc5s4)c23)cc1 [Compound 5]
NS3/4A D168A
  NS3/4A D168A FC: 33.4
NS3/4A R155K
  IC50: 9.64 µM
furin
  IC50: > 100 µM
WNV NS2B-NS3 proteinase
  IC50: 23.7 µM
Huh7 ET cells
  CC50: > 100 µM
  CC90: > 100 µM
NS3/4A V170A
  NS3/4A V170A FC: 16.6
  IC50: 6.29 µM

## S=c1[nH]nc(Nc2nc(SCc3ccccc3)nc3n[nH]c(Cc4nn[nH]n4)c23)s1 [Compound 6]
NS3/4A D168A
  NS3/4A D168A FC: 1.3
NS3/4A R155K
  IC50: 2.29 µM
furin
  IC50: 66.8 µM
WNV NS2B-NS3 proteinase
  IC50: 12.7 µM
Huh7 ET cells
  CC50: > 100 µM
  CC90: > 100 µM
NS3/4A V170A
  NS3/4A V170A FC: 0.98
  IC50: 0.93 µM

## S=c1[nH]n2c(COc3cc(Cl)c(OCc4nnc5sc(=S)[nH]n45)cc3Cl)nnc2s1 [Compound 7]
NS3/4A D168A
  NS3/4A D168A FC: 1
NS3/4A R155K
  IC50: 2.03 µM
furin
  IC50: > 100 µM
WNV NS2B-NS3 proteinase
  IC50: 39.1 µM
Huh7 ET cells
  CC50: 86.8 µM
  CC90: 96.3 µM
NS3/4A V170A
  NS3/4A V170A FC: 1.2
  IC50: 1.52 µM

## COc1cc(C2C(C(=O)Nc3ccc(Cl)c(Cl)c3)=C(C)NC(C)=C2C(=O)Nc2ccc(Cl)c(Cl)c2)ccc1O [Compound 8]
NS3/4A D168A
  NS3/4A D168A FC: 1.6
NS3/4A R155K
  IC50: 10.9 µM
furin
  IC50: 27 µM
WNV NS2B-NS3 proteinase
  IC50: 21.8 µM
Huh7 ET cells
  CC50: 14.2 µM
  CC90: 26.6 µM
NS3/4A V170A
  NS3/4A V170A FC: 1.5
  IC50: 2.92 µM
